Measurements published in patent publication US11471456B2, “Formulations comprising heterocyclic protein kinase inhibitors” (Sumitomo Pharma Oncology, Inc., priority 2019, dated 2022).
In brackets after ≈: the same amount, converted by molar mass. Like-named read-outs stand apart in the source and are kept apart here.

Experiments:
[1] = DVS (hygroscopicity) of free base and salts; format: physicochemical
[2] = Oral bioavailability of the compound of structure (I) in rats with different excipients; format: in vivo; conditions: for bioavailability: rat, in vivo, po
[3] = Phase 1 first-in-human escalating dose study in patients with advanced solid tumors; format: in vivo
Protocol: The study is currently enrolling Cohort 3 at a dose level of 1080 mg qd.

[4] = HPLC solubility in SGF, FaSSIF, FeSSIF at 37° C.; format: physicochemical; conditions: thermodynamic from solid
Protocol: HPLC Method. The chromatographic conditions for HPLC are summarized below.
The samples were then centrifuged and filtered. Saturated solutions were diluted with MeOH:H2O=1:2 (v:v), and the concentrations were determined by HPLC. The final pH of the saturated solutions was tested.

## CC(C)(O)[C@H]1CC[C@H](Nc2ccc3ncc(-c4cccc(C(F)(F)F)c4)n3n2)CC1 [compound of structure (I), 2-((1R,4R)-4-((3-(3-(trifluoromethyl)phenyl)imidazo[1,2-b]pyridazin-6-yl)amino)cyclohexyl)propan-2-ol]
[1]
  DVS (weight gain, %): 1.60%
  hygroscopicity by DVS compared with methanesulfonic acid salt: much lower hygroscopicity
[2]; Dry Powder (capsule), administered alone
  Oral Bioavailability (% F): poor bioavailability
[2]; Dry Powder (capsule), administered alone, read-out: Oral Bioavailability (% F)
  bioavailability: 0%
[2]; excipient 10% EtOH/10% PEG300/20% HS15, read-out: Oral Bioavailability (% F)
  bioavailability: 38%
[2]; excipient 10% EtOH/40% PG, read-out: Oral Bioavailability (% F)
  bioavailability: 2%
[2]; excipient 10% PS-20, read-out: Oral Bioavailability (% F)
  bioavailability: 39%
[2]; excipient 10% PS-20/50% PEG400, read-out: Oral Bioavailability (% F)
  bioavailability: 15%
[2]; excipient Corn Oil, read-out: Oral Bioavailability (% F)
  bioavailability: 0%
[2]; excipient HPβCD, read-out: Oral Bioavailability (% F)
  bioavailability: 11%
[3]; 480 mg qd and 720 mg qd cohorts (3 patients each), first cycle, preliminary data
  changes in hematological parameters including platelets, WBC counts and hemoglobin: no marked changes in hematological parameters
[3]; 480 mg qd and 720 mg qd cohorts, preliminary data
  side effects, regardless of causality, occurring with a frequency equal to 2 or greater: diarrhea, nausea and vomiting
[3]; all Grade 1, except one event that was Grade 2
  severity of the side effect events: mild in severity
[4]; simulated gastric fluid, SGF
  solubility at 0.5 h: 1360 µg/mL (≈ 3250 µM)
  solubility at 2 h: 1270 µg/mL (≈ 3030 µM)
  solubility at 24 h: 903 µg/mL (≈ 2160 µM)
[4]; FaSSIF
  solubility at 0.5 h: 10.4 µg/mL (≈ 24.9 µM)
  solubility at 2 h: 9.81 µg/mL (≈ 23.4 µM)
  solubility at 24 h: 7.91 µg/mL (≈ 18.9 µM)
[4]; FeSSIF
  solubility at 0.5 h: 96.8 µg/mL (≈ 231 µM)
  solubility at 24 h: 91.5 µg/mL (≈ 219 µM)

## CC(C)(O)C1CCC(Nc2ccc3ncc(-c4cccc(C(F)(F)F)c4)n3n2)CC1.Cl [Hydrochloric acid salt, 2-((1R,4R)-4-((3-(3-(trifluoromethyl)phenyl)imidazo[1,2-b]pyridazin-6-yl)amino)cyclohexyl)propan-2-ol hydrochloride]
[1]
  DVS (weight gain, %): 2.83%
  hygroscopicity by DVS compared with methanesulfonic acid salt: much lower hygroscopicity
